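Compound exposure: 48 hours, 5 concentrations, 96-well plates. GI50 is the concentration that inhibits growth by half.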 The source made the active and inactive calls. Cut-off read from the data, not from the text of the source: active = GI50 up to about 1.1 µM and inactive = higher.
Columns and labels:
Experiment in all cases: NCI anticancer screen, dose series, 48 h
OVCAR-3 = system: OVCAR-3
MCF7 = system: MCF7
MOLT-4 = system: MOLT-4
SF-295 = system: SF-295
NCI-H226 = system: NCI-H226
SK-MEL-2 = system: SK-MEL-2
LOX IMVI = system: LOX IMVI
PC-3 = system: PC-3
HT-29 = system: HT-29
M14 = system: M14
RPMI-8226 = system: RPMI-8226
SN12C = system: SN12C
HL-60 = system: HL-60
HCC 2998 = system: HCC 2998
CAKI-1 = system: CAKI-1
U-251 = system: U-251
SK-MEL-28 = system: SK-MEL-28
SNB-19 = system: SNB-19
SF-268 = system: SF-268
UO-31 = system: UO-31

Measured: GI50

CSc1nc(Br)nc2c1ncn2C1CC(Oc2ccc(C)cc2)C(COc2ccc(C)cc2)O1 (stereo not given)
inactive: OVCAR-3 > 100 µM | MCF7 > 100 µM | MOLT-4 > 100 µM | SF-295 > 100 µM | NCI-H226 > 100 µM | SK-MEL-2 > 100 µM | LOX IMVI > 100 µM | PC-3 > 100 µM | HT-29 > 100 µM | M14 > 100 µM | RPMI-8226 93.8 µM | SN12C > 100 µM | HL-60 > 100 µM | HCC 2998 > 100 µM | CAKI-1 > 100 µM | U-251 > 100 µM | SK-MEL-28 > 100 µM | SNB-19 22.5 µM | SF-268 > 100 µM

CN(C)/C=N\c1nncc2[nH]cnc12
inactive: OVCAR-3 > 100 µM | MCF7 > 100 µM | MOLT-4 77.6 µM | SF-295 > 100 µM | NCI-H226 > 100 µM | SK-MEL-2 > 100 µM | LOX IMVI 55.8 µM | PC-3 > 100 µM | HT-29 > 100 µM | M14 55.8 µM | RPMI-8226 > 100 µM | SN12C > 100 µM | HL-60 > 10 µM | HCC 2998 > 100 µM | CAKI-1 > 100 µM | U-251 > 100 µM | SK-MEL-28 > 100 µM | UO-31 98.6 µM

CC(=O)OC12c3ccccc3C(c3ccccc31)C1C(=O)N(c3ccccc3O)C(=O)C12 (stereo not given)
inactive: OVCAR-3 90.8 µM | MCF7 > 100 µM | MOLT-4 > 100 µM | SF-295 80.2 µM | NCI-H226 > 100 µM | LOX IMVI > 100 µM | PC-3 > 100 µM | HT-29 70.5 µM | M14 > 100 µM | RPMI-8226 66.5 µM | SN12C > 100 µM | HL-60 76.9 µM | HCC 2998 > 100 µM | CAKI-1 > 100 µM | U-251 > 100 µM | SK-MEL-28 > 100 µM | UO-31 50.4 µM | SNB-19 84.9 µM | SF-268 80.5 µM

N#Cc1c(-c2ccccc2)c(C#N)c(=S)n(C2OCC(O)C(O)C2O)c1N (stereo not given)
inactive: OVCAR-3 > 100 µM | MCF7 > 100 µM | MOLT-4 > 100 µM | SF-295 > 100 µM | NCI-H226 > 100 µM | SK-MEL-2 > 100 µM | LOX IMVI > 100 µM | PC-3 > 100 µM | HT-29 > 100 µM | M14 > 100 µM | RPMI-8226 > 100 µM | SN12C > 100 µM | HL-60 > 100 µM | HCC 2998 > 100 µM | CAKI-1 > 100 µM | SK-MEL-28 > 100 µM | UO-31 > 100 µM | SNB-19 > 100 µM | SF-268 > 100 µM

COc1cc2c(=O)cnoc2cc1O
inactive: OVCAR-3 > 100 µM | MCF7 > 100 µM | MOLT-4 > 100 µM | SF-295 > 100 µM | NCI-H226 > 100 µM | SK-MEL-2 > 100 µM | PC-3 > 100 µM | HT-29 > 100 µM | M14 > 100 µM | RPMI-8226 > 100 µM | SN12C > 100 µM | HL-60 > 100 µM | HCC 2998 > 100 µM | CAKI-1 > 100 µM | U-251 > 100 µM | SK-MEL-28 > 100 µM | UO-31 > 100 µM | SNB-19 > 100 µM | SF-268 > 100 µM

CCCc1cc(=O)oc2c3c(c4c(c12)OC(C)(C)C=C4)O[C@@H](C)[C@H](C)C3=O
inactive: OVCAR-3 17.2 µM | MCF7 17.6 µM | MOLT-4 6.61 µM | SF-295 16.6 µM | NCI-H226 18.2 µM | LOX IMVI 18.7 µM | PC-3 15.5 µM | HT-29 8.71 µM | RPMI-8226 3.83 µM | SN12C 18.7 µM | HL-60 4.99 µM | HCC 2998 15.3 µM | CAKI-1 28.9 µM | U-251 23.4 µM | SK-MEL-28 13 µM | UO-31 15.8 µM | SNB-19 17.8 µM | SF-268 17.1 µM

Cc1ccc2c(c1)CC1(Cc3cc(C)ccc3C1=O)C2=O
inactive: OVCAR-3 > 100 µM | MCF7 > 100 µM | MOLT-4 > 100 µM | SF-295 > 100 µM | SK-MEL-2 > 100 µM | LOX IMVI > 100 µM | PC-3 > 100 µM | HT-29 > 100 µM | M14 > 100 µM | RPMI-8226 > 100 µM | HL-60 > 100 µM | HCC 2998 > 100 µM | CAKI-1 > 100 µM | U-251 > 100 µM | SK-MEL-28 > 100 µM | UO-31 > 100 µM | SNB-19 > 100 µM | SF-268 > 100 µM
